Experimental data from publication PMC11596366, “Silybin Derivatives Produced by γ-Irradiation and Their Tyrosinase Inhibitory Activities” (Molecules, 2024).
One block for each compound: values may come before it.

Columns and labels:
Mushroom tyrosinase = Mushroom tyrosinase (Agaricus bisporus, UniProt C7FF04); test: Mushroom tyrosinase inhibitory activity (L-tyrosine substrate, OD 475 nm); assay type: biochemical
Procedure: Mushroom tyrosinase (Sigma-Aldrich Co., St. Louis, MO, USA) was used for in vitro assays with slight modifications from a previously described method. […] After 5 min incubation at room temperature, 0.1 mL L-tyrosine (2 mM) was added and incubated for additional 20 min.

tyrosinase = system: tyrosinase; design: method as in PMID 30871862; details: against both monophenolase and diphenolase; cited from earlier work

Sequence of Mushroom tyrosinase (C7FF04 2-392): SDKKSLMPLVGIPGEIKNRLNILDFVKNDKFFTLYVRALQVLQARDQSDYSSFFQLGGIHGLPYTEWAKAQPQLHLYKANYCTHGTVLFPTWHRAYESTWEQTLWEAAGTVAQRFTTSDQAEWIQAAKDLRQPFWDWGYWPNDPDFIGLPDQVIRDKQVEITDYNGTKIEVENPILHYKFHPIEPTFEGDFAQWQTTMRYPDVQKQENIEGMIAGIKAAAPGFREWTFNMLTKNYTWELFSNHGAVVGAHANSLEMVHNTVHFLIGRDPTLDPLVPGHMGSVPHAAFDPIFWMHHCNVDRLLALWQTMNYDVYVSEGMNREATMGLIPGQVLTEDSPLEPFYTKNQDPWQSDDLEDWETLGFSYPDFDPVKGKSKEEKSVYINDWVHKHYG
Sequence of Mushroom tyrosinase (G1K3P4 entry or part of it, further chain): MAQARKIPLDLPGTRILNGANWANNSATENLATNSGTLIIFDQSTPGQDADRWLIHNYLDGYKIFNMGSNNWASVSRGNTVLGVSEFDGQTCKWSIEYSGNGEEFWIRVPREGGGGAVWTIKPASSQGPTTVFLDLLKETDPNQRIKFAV

IC50 (Mushroom tyrosinase; non-irradiated and irradiated silybin samples, arbutin positive control, L-tyrosine 2 mM, pH 6.5): >200 µg/mL | Inhibition of Tyrosinase (%) (Mushroom tyrosinase; sample concentration 50 μg/mL, L-tyrosine 2 mM, pH 6.5): 5.2 ± 0.2% | Inhibition of Tyrosinase (%) (Mushroom tyrosinase; sample concentration 100 μg/mL, L-tyrosine 2 mM, pH 6.5): 11.4 ± 0.5% | Inhibition of Tyrosinase (%) (Mushroom tyrosinase; sample concentration 200 μg/mL, L-tyrosine 2 mM, pH 6.5): 26.5 ± 0.8%
Structure (SMILES): COc1cc(C2Oc3cc([C@H]4Oc5cc(O)cc(O)c5C(=O)[C@@H]4O)ccc3OC2CO)ccc1O (stereo partly drawn) [Compound 0]

Structure (SMILES): OC[C@H]1O[C@@H](Oc2ccc(O)cc2)[C@H](O)[C@@H](O)[C@@H]1O [Arbutin, reference compound]
inhibition at 2300 µg/mL (Mushroom tyrosinase; concentration 2300 μg/mL, positive control): 50 ± 2.1%

Structure (SMILES): COc1cc(C2Oc3cc([C@H]4Oc5cc(O)cc(O)c5C(=O)[C@@H]4O)ccc3OC2CO)ccc1O (stereo partly drawn) [silybin (1), silybin]
type of tyrosinase inhibition (tyrosinase): mixed type I (KI < KIS) inhibition
